For series [1], the system named is N. fowleri ATCC® 30808 trophozoites. Description: Plasma membrane permeability (SYTOX Green). Conditions: IC90 of compound, 24 h. The series is classed as cell-based, Naegleria fowleri. Here is the method:
The evaluation of the programmed cell death induction by the meroterpenoids was performed in the ATCC® 30808™ N. fowleri trophozoites. Cells were incubated over 24 h with the IC90 (Table 1) of the compounds at 37 °C. In these experiments, the presence of different metabolic events which are characteristics of the programmed cell death process were evaluated. For this, five different apoptosis events marker kits (the Hoechst 33342/Propidium Iodide, SYTOX™ Green kit, CellROX® Deep Reagent, JC-1 Mitochondrial Membrane Potential Detection Kit, and the Celltiter-Glo® Luminescent Cell Viability Assay) were used according to manufacturer’s instructions. Furthermore, the percentage of stained cells was determined after incubating the treated and non-treated cells with the stains.
The evaluation of the damage in the cell membrane permeability was conducted with the SYTOX Green assay (Life Technologies, Madrid, Spain). Amoebae were incubated with the molecules over 24 h at 37 °C. An EVOS™ M5000 Imaging System (Invitrogen by Thermo Fisher Scientific) was used to observe the trophozoites. Cells with compromised plasma membrane permeability show bright green fluorescence as the stain reaches the nucleus. However, no fluorescence is observed in negative control cells.
In the PCD assays, the number of stained and unstained cells was measured after the performance of the experiments. Regarding the JC-1 Mitochondrial Membrane Potential assays, the ratio between the emitted red fluorescence (at 595 nm) and green fluorescence (at 535 nm) was determined. For each kit, images (×40) with at least 80 cells were selected and analyzed. […] The graphs illustrate the mean value ± SD of three different tests. Finally, a one-way analysis of variance (ANOVA) was assessed to determine the statistical differences between the treated cells and the negative control amoebae, ** p < 0.01; *** p < 0.001; **** p < 0.0001 significant differences.

The test system is the same in series [2]. Description: ROS production (CellROX Deep Red). The series is classed as cell-based, Naegleria fowleri. Conditions: IC90 of compound, 24 h. Here is the method: The evaluation of the programmed cell death induction by the meroterpenoids was performed in the ATCC® 30808™ N. fowleri trophozoites. Cells were incubated over 24 h with the IC90 (Table 1) of the compounds at 37 °C. In these experiments, the presence of different metabolic events which are characteristics of the programmed cell death process were evaluated. For this, five different apoptosis events marker kits (the Hoechst 33342/Propidium Iodide, SYTOX™ Green kit, CellROX® Deep Reagent, JC-1 Mitochondrial Membrane Potential Detection Kit, and the Celltiter-Glo® Luminescent Cell Viability Assay) were used according to manufacturer’s instructions. Furthermore, the percentage of stained cells was determined after incubating the treated and non-treated cells with the stains. The determination of ROS generation was carried out using the CellROX Deep Red fluorescent assay (Thermo Fisher Scientific) following manufacturer’s instructions. Briefly, N. fowleri’s trophozoites were incubated with compounds over 24 h at 37 °C. After that, the CellROX stain was added and incubated with the cells for 30 min in the dark. […] In the PCD assays, the number of stained and unstained cells was measured after the performance of the experiments. Regarding the JC-1 Mitochondrial Membrane Potential assays, the ratio between the emitted red fluorescence (at 595 nm) and green fluorescence (at 535 nm) was determined. For each kit, images (×40) with at least 80 cells were selected and analyzed. […] The graphs illustrate the mean value ± SD of three different tests. Finally, a one-way analysis of variance (ANOVA) was assessed to determine the statistical differences between the treated cells and the negative control amoebae, ** p < 0.01; *** p < 0.001; **** p < 0.0001 significant differences.

The next series deals with N. fowleri ATCC® 30808. Description: In vitro activity against N. fowleri trophozoites (alamarBlue), strain ATCC 30808. The series is classed as cell-based, Naegleria fowleri. Conditions: for IC50 / IC90: Naegleria fowleri; for Anti-Naegleria activity (in words): both tested strains of N. fowleri. Here is the method: (§1) The in vitro activity against N. fowleri trophozoites was evaluated in two different strains from the American Type Culture Collection (LG Promochem, Barcelona, Spain), ATCC® 30808™ and ATCC® 30215™. Cells were axenically grown in 2% Bactocasitone (w/v) medium (Thermo Fisher Scientific, Madrid, Spain) at 37 °C. Moreover, 10% (v/v) of fetal bovine serum (FBS) 0.3 μg/mL of Penicillin G Sodium Salt and 0.5 mg/mL of Streptomycin sulphate (Sigma-Aldrich, Madrid, Spain) were also added to the Bactocasitone medium.
(§2) For these assays, a colorimetric assay was conducted using the alamarBlue® reagent. Briefly, N. fowleri trophozoites were seeded in duplicate in a 96-well microtiter plate. After that, different concentrations of the evaluated meroterpenoids diluted in fresh Bactocasitone were added to the wells. The negative control consisted on the trophozoites incubated with the medium alone. Lastly, the alamarBlue® (Life Technologies, Madrid, Spain) reagent was added. Plates were incubated in slight agitation at 37 °C. After 48 h, the fluorescence of the wells was analyzed in an EnSpire Multimode Plate Reader (Perkin Elmer, Madrid, Spain) using a wavelength of excitation of 570 nm and a wavelength of emission of 585 nm.
(§3) In order to calculate the IC50 and IC90, a nonlinear regression analysis with a 95% confidence limit was performed.
(§4) The in vitro IC50, IC90, and CC50 of the compounds were determined by a non-linear regression with a 95% confidence limit. The SigmaPlot 12.0 software (Systat Sofware Inc., London, UK) was used to perform the data analysis using a paired two-tailed t-test. Values of p < 0.05 were considered significant. The data represent the mean value and the SD of the conducted three different experiments.

For the next series, the system named is N. fowleri ATCC® 30215. Description: In vitro activity against N. fowleri trophozoites (alamarBlue), strain ATCC 30215. Conditions: Naegleria fowleri, ATCC30215, 48 h, mean ± SD. The series is classed as cell-based. Here is the method: as §1, §2, §3, §4
Series [3] deals with Murine macrophages J774A.1 (ATCC® TIB-67). Description: In vitro cytotoxicity against murine macrophages (alamarBlue). The series is classed as cell-based. Conditions: murine macrophages J774A.1, 24 h, mean ± SD. Here is the method:
Murine macrophages from the J774A.1 cell line (ATCC® TIB-67) were maintained in Dulbecco’s Modified Eagle’s medium (DMEM) in order to evaluate the toxicity of the compounds. In addition, 10% (v/v) FBS and 10 μg/mL gentamicin (Sigma-Aldrich, Madrid, Spain) were added to the growth medium. Cells were grown in a 5% CO2 atmosphere at 37 °C.
For the cytotoxicity assays, the same protocol as detailed in Section 4.4 above was used. Murine macrophages were incubated with serial dilutions of the evaluated compounds at 37 °C in a 5% CO2 atmosphere over 24 h. The obtained data were analyzed as described in the previous section in order to calculate the CC50.
as §4
In general terms: Resazurin is reduced to fluorescent resorufin, in cell work by metabolically active cells.

The mark [4] stands for this setting: ATCC 30215 / ATCC 30808, range over the named compounds and both strains (ATCC 30808 and ATCC 30215), read-out: IC50 against N. fowleri.
The mark [5] stands for this setting: ATCC30808, N. fowleri trophozoites, 48 h, alamarBlue, mean ± SD.
[6] abbreviates: ATCC30808, N. fowleri trophozoites, 48 h, alamarBlue, mean ± SD, read-out: IC50 ATCC® 30808.

The text below walks through data of publication PMC10384572, “Marine Meroterpenoids Isolated from Gongolaria abies-marina Induce Programmed Cell Death in Naegleria fowleri” (Pharmaceuticals, 2023).

Where two headings read alike, the source gives them in different places.

One may read the IC50 as the concentration that gives 50% inhibition. As a reminder, the IC90 is the point of the concentration-response curve where the effect stands at 90%. Higher therefore signals weaker potency. The CC50 is the concentration giving 50% cytotoxicity. Higher therefore signals lower toxicity to the cells.

For the molecule `COc1c(C)cc(O)cc1C/C=C(\C)CC(=O)/C=C(\C)CCC[C@@H](C)C(=O)/C=C/C(C)(C)O` [1′Methoxyamentadione (3), 1′-methoxyamentadione], in series [1], the “Plasma membrane permeability damage (SYTOX green)” value is “plasma membrane permeability damage”. The “ROS production versus negative control (CellROX deep red)” value (shortened to “ROS production versus negative control”) in series [2] is given as “increased the level of ROS production”. For the same molecule, the half-inhibitory concentration (IC50) in the series on N. fowleri ATCC® 30808 (setting [4]) was 13.3 to 20.4 µM; with N. fowleri ATCC® 30808 (setting [6]), 19.9 ± 5.27 µM; in the series on N. fowleri ATCC® 30215, 16.5 ± 0.96 µM. In addition, the IC90 in the series with N. fowleri ATCC® 30808 (setting [5]) was 64.9 ± 6.94 µM; with N. fowleri ATCC® 30215 it was 59.7 ± 20.2 µM. The “Anti-Naegleria activity (in words)” value in the series with N. fowleri ATCC® 30808 is listed as “active”.
`COc1c(C)cc(O)cc1C/C=C(\C)CC(=O)/C=C(/C)CCC[C@@H](C)C(=O)/C=C/C(C)(C)O` [6Z-1′Methoxyamentadione (2), 6Z-1′-methoxyamentadione]: the “Plasma membrane permeability damage (SYTOX green)” value in series [1] is “plasma membrane permeability damage”. The “ROS production versus negative control” value in series [2] is reported as “increased the level of ROS production”. Besides, the 50% inhibitory concentration (IC50) in the series with N. fowleri ATCC® 30808 (setting [4]) was 13.3 to 20.4 µM; with N. fowleri ATCC® 30808 (setting [6]), 20.4 ± 4.07 µM; with N. fowleri ATCC® 30215, 13.3 ± 0.96 µM. For the same molecule, the results for the IC90 in the series with N. fowleri ATCC® 30808 (setting [5]) and in the series on N. fowleri ATCC® 30215 were 55.3 ± 8.28 µM and 44.2 ± 14.9 µM, respectively. In the series with N. fowleri ATCC® 30808, the “Anti-Naegleria activity (in words)” value is “active”.
`COc1c(C)cc(O)cc1C/C=C(\C)CC(=O)/C=C(\C)CCCC(C)=O` [Cystomexicone B (6), cystomexicone B]: the CC50 in series [3] was greater than 500 µM. Further, in series [1], the “Plasma membrane permeability damage (SYTOX green)” value is recorded as “plasma membrane permeability damage”. Moreover, the “ROS production versus negative control” value in series [2] is on record as “increased the level of ROS production”. Further, the IC90 stood at 206 ± 16.6 µM with N. fowleri ATCC® 30808 (setting [5]) and 260 ± 41.1 µM in the series on N. fowleri ATCC® 30215. Also, the half-maximal inhibitory concentration (IC50) in the series on N. fowleri ATCC® 30808 (setting [6]) is 58.9 ± 10.1 µM; with N. fowleri ATCC® 30215, 58.1 ± 5.85 µM. In addition, the “Anti-Naegleria activity (in words)” value in the series with N. fowleri ATCC® 30808 is “active”. In the series on N. fowleri ATCC® 30808 (cytotoxicity in murine macrophages versus activity against N. fowleri), the “Selectivity index (SI)” value was greater than 8.5.
On to `COc1c(C)cc(O)cc1C/C=C(\C)CC(=O)C/C(C)=C/CC[C@@H](C)C(=O)/C=C/C(C)(C)O` [Gongolarone B (1), gongolarone B], for which the “Plasma membrane permeability damage (SYTOX green)” value in series [1] was “plasma membrane permeability damage”. Also, in series [2], the “ROS production versus negative control” value was “increased the level of ROS production”. The IC90 came out at 58 ± 1.73 µM in the series on N. fowleri ATCC® 30808 (setting [5]) and 68.3 ± 1.73 µM with N. fowleri ATCC® 30215. The IC50 with N. fowleri ATCC® 30808 (setting [6]) came to 21.9 ± 1.6 µM; in the series on N. fowleri ATCC® 30215, 18.9 ± 0.94 µM. Also, the “Anti-Naegleria activity (in words)” value in the series with N. fowleri ATCC® 30808 is “active”.
